The test system of series [1] is Hela cells. Put plainly: Competition assay with exogenous folic acid, uptake in Hela cells. It is filed as cell-based. The note with it: 4 μM/l folic acid, 24 hours. The source says:
Then, the sample was centrifuged, the supernatant was taken, and the pellet was rewashed with cooled Hank's solution. The obtained pellet was again transferred into Hank's solution.

The nature of series [2]: Generation of singlet oxygen (luminescence at 1270 nm). The class given is physicochemical. The procedure: Photoresponse of this process (φΔ) was measured by a relative method through integral intensity of singlet oxygen luminescence at a wavelength of 1270 nm. Excitation was conducted at a wavelength of 531 nm (pulse energy 4 microJ, frequency 1 kHz). Tests were made in air saturated buffer solutions at room temperature. […] The φΔ in D2O was considered as 0.7.
To analyze kinetic curves of singlet oxygen luminescence, the following function was used:
wherein A is a coefficient depending on initial concentrations of interacted reagents, and k1 and k2 are constants of luminescence signal increase and extinction, respectively.
In the case when the deactivation rate constant Kτ of the photosensitizer triplet state exceeds the deactivation rate constant KΔ of the molecular oxygen […] state, the constant of increase k1 corresponds to Kτ, and constant of extinction k2 corresponds to KΔ. In the case of Kτ<KΔ, inversion of the kinetics of singlet oxygen luminescence occurs. In this case, k2=Kτ and k1=KΔ. […] Thus, based on kinetic data, the life times of singlet oxygen and triplet state can be calculated.

Series [3] has as its target human serum albumin (Homo sapiens, UniProt P02768). In words: Pigment-protein complex formation with human serum albumin. The note with it: HSA, number of binding positions n=1. From the text: Pigment-protein complexes have been formed by adding to the solution of human serum albumin (HAS) a specific amount of photosensitizer dissolved in the same buffer. […] Similarly, the photosensitizer was included in detergent micelle (Triton X-100, C=10^−3M).
wherein r and C are the respectively concentrations of bound and unbound protein pigment, r+C=CΣ. […] It is also applicable with respect to pigment molecules included in Triton X-100 micelle.

[4] abbreviates: air saturated buffer solution, room temperature.

human serum albumin, sequence (P02768 25-609): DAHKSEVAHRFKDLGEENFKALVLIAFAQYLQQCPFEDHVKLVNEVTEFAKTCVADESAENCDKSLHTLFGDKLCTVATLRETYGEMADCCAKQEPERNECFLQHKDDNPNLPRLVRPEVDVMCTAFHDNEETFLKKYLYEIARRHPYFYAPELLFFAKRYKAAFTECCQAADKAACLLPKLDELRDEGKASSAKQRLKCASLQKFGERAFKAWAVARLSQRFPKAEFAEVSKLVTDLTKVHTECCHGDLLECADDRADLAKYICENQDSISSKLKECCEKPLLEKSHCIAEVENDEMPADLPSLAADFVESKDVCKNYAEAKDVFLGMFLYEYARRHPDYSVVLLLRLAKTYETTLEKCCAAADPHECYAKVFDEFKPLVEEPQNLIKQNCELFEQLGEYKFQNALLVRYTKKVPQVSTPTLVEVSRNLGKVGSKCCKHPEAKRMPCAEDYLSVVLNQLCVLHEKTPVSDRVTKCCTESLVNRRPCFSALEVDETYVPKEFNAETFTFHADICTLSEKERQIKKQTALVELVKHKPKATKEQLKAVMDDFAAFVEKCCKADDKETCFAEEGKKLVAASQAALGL

As for “[γ-(6-aminohexyl)folic acid]-chlorin e6 [chlorin e6 conjugate]”, the “effect of free folic acid on uptake in Hela cells” value in series [1] is listed as “significantly reduced the uptake”. The “φΔ (efficiency of ^1O2 generation)” value in series [2] (H2O, pH 8.1) is given as 0.70; in series [2] (HSA, H2O, pH 8.1), 0.63-; in series [2] (Pyridine), 0.68; in series [2] (Triton X-100), 0.80. The “τt (life time of triplet state) from kinetic curves of singlet oxygen luminescence” value in series [2] (setting [4]) was 2.0±0.2 microsec. Further, the “τΔ (life time of singlet oxygen) from kinetic curves of singlet oxygen luminescence” value in series [2] (setting [4]) turned out to be 3.6±0.2 microsec. In addition, the “photoresponse of photosensitized formation of singlet oxygen” value in series [2] (pH 6.0) is recorded as 0.52; in series [2] (pH 8.1), 0.7. Besides, in series [3], the “binding constant κCB with protein” value is 1.2e+06 M⁻¹.

For the origin of these results see patent US8735439B2, “Chlorin e6-folic acid conjugate, preparation method thereof, and a pharmaceutical composition for the treatment of cancer comprising the same” (Diatech Korea Co., Ltd., priority 2009, dated 2014).
